Structures are written as SMILES.

The values below come from patent US20130045483A1, “YEAST CELLS EXPRESSING AMYLOID BETA AND USES THEREFOR” (priority 2011, published 2013).

One data set concerns ssAβ 1-42 strain. In words: Clioquinol rescue in liquid culture (Bioscreen OD600 growth). The following applies: for growth of the Aβ expressing strain: inducing (galactose) media, various concentrations; for growth at the optimal concentration compared with control strain: control strain expressing YFP. The format is cell-based, yeast. The protocol: (§1) To further test the effect of clioquinol, a control strain and a strain expressing toxic levels of Aβ were grown in liquid culture with various concentrations of the compound.
Yeast strains were grown overnight to saturation in synthetic medium with glucose as the carbon source after inoculation from a colony. These cultures were used to inoculate raffinose cultures. Raffinose cultures in log phase growth (OD600 0.7-0.9) were diluted to an OD600 of 0.03 in synthetic medium with galactose as the carbon source, and […] of the cell suspension was distributed to each well of a Bioscreen plate. […] of clioquinol (Sigma C8133, ˜95%), dissolved in DMSO at 100 times the final intended concentration, was added to each well. A Labsystems Bioscreen C was used to maintain the plate at 30 degrees C. and make OD600 measurements on each well at 10-minute intervals over a period of approximately three days. Each condition was performed in duplicate.

In a further data set the test system is GAL controlled YFP. Description: GAL1-induced expression, flow cytometry of GAL controlled YFP. The format is cell-based, yeast. As to conditions: flow cytometry of GAL controlled YFP (data not shown). The procedure:
as §1
A strain carrying an integrated YFP was transformed with the putative Aβ suppressors. The resulting strains were grown in glucose media in a 96 well format, diluted into the various inducing media (galactose, glucose+1 uM estradiol, glycerol+1 uM estradiol) [5 ul culture added to 120 ul media], and incubated over night at 30° C. with mild shaking. These overnight cultures were diluted 20 fold into water and YFP levels were measured using a Guava flow cytometer. Each strain was measured 3 times and 5000 cells were counted for each well. The whole experiment was repeated 3 times. Values are averages of these 3 experiments and reported in percent of the vector control strain YFP levels.

In the case of `Oc1c(I)cc(Cl)c2cccnc12` [clioquinol], the “toxicity at higher concentrations” value with ssAβ 1-42 strain (higher concentrations, ssAβ 1-42 strain and YFP control strain) is “toxic to both strains”. In addition, in the data set with ssAβ 1-42 strain, the “growth of the Aβ expressing strain” value was “rescued growth levels in a dose dependent manner” and the “growth at the optimal concentration compared with control strain” value is “restored growth levels to those of a control strain expressing YFP”. Besides, in the data set with ssAβ 1-42 strain (listed as Clioquinol), the “growth of the Aβ expressing strain” value is “improved the growth of the Aβ expressing strain in a dose dependent manner” and the “growth at the optimal concentration compared with control strain” value was “nearly as robust as that of the control strain”. Moreover, the “effect on GAL1-induced expression” value with GAL controlled YFP is given as “did not diminish GAL1-induced expression”.
